Results on ten compounds are retold here after patent publication US5707987A, “Carbapenem derivatives” (Banyu Pharmaceutical Co., Ltd., priority 1994, dated 1998).

Data set [1] has as its system DHP-I. The data set is classed as in vitro ADME. The note with it: ratio to imipenem (=1.0); the smaller the value, the higher the stability. From the text: Further, the DHP-I susceptibility was quantitatively analyzed by the method by Kropp et al., Antimicrob. Agents Chemother., vol. 22, pp. 62-70 (1982), whereby the smaller the numerical value representing the ratio to imipenem (=1.0), the higher the stability.
The DHP-1 susceptibility of the compounds of the present invention were compared with imipenem.

Data set [2] concerns kidney. Conditions: background statement; cited from earlier work.
Data set [3] deals with S. aureus pMS520/Smith. As to the kind of experiment: In vitro antibacterial activity, agar plate dilution method (MIC). In kind it is cell-based. The note with it: Staphylococcus aureus, 16 h, read-out: Minimum Inhibitory Concentration (MIC). On the procedure: (§1) One platinum loopful of each test microorganism incubated overnight in Mueller Hinton broth, was inoculated to Mueller Hinton agar (inoculum size: 10^6 CFU/ml). Such culture media contained antibacterial agents in various concentrations. […] The minimum inhibitory concentrations of the compounds of the present invention were compared with imipenem.

Data set [4] has as its system S. aureus BB5939. The data set is described as above. In kind it is cell-based. Conditions: Staphylococcus aureus, read-out: Minimum Inhibitory Concentration (MIC). The protocol: as §1
The test system of data set [5] is gram positive bacteria and gram negative bacteria. The note with it: background statement; cited from earlier work.
For data set [6] the following is noted: cited from earlier work.
The conditions of data set [7]: background statement; cited from earlier work.
The test system of data set [8] is renal dehydropeptidase I (DHP-I). The note with it: in vivo; cited from earlier work.
In data set [9] the test system is DHP-I. Conditions: background statement; cited from earlier work.
Data set [10] relates to β-lactamase. The note with it: background statement; cited from earlier work.
The subject of data set [11] is highly methicillin-resistant Staphylococcus aureus resistant to imipenem and imipenem-resistant Pseudomonas aeruginosa. Conditions: background statement; cited from earlier work.
Where [12] appears, read: S. aureus BB5939 (β-lactamase-producing bacterium per footnote), inoculum 10^6 CFU/ml, Mueller Hinton agar, 37° C., 16 hours.

The structures appear in SMILES notation. Values after ≈ are worked out from the molar mass of the structure shown. Like-named read-outs stand apart in the source and are kept apart here. A value given as a limit tells only on which side of the number the result lay.

As to `C[C@@H](O)[C@H]1C(=O)N2C(C(=O)O)=C(S[C@@H]3CN[C@H](COc4ccccc4)C3)[C@H](C)[C@H]12` [Example 128, (1R,5S,6S)-6-[(R)-1-Hydroxyethyl]-1-methyl-2-[(3S,5S)-5-(phenoxymethyl)pyrrolidin-3-ylthio]-1-carbapen-2-em-3-carboxylic acid], the DHP-I susceptibility in data set [1] was determined as 0.16.

In the case of `CN[C@H](CC(C)C)C(=O)N[C@H]1C(=O)N[C@@H](CC(N)=O)C(=O)N[C@H]2C(=O)N[C@H]3C(=O)N[C@H](C(=O)N[C@H](C(=O)O)c4cc(O)cc(O)c4-c4cc3ccc4O)[C@H](O)c3ccc(c(Cl)c3)Oc3cc2cc(c3O[C@@H]2O[C@H](CO)[C@@H](O)[C@H](O)[C@H]2O[C@H]2C[C@](C)(N)[C@H](O)[C@H](C)O2)Oc2ccc(cc2Cl)[C@H]1O` [vancomycin], the “toxicity against the kidney” value in data set [2] is recorded as “strong toxicity”.

Take `C[C@@H](O)[C@H]1C(=O)N2C(C(=O)O)=C(S[C@@H]3CN[C@H](COc4ccc(CN)cc4)C3)[C@H](C)[C@H]12.Cl` [Example 127, (1R,5S,6S)-2-[(3S,5S)-5-[4-(Aminomethyl)phenoxymethyl]-pyrrolidin-3-ylthio]-6-[(R)-1-hydroxyethyl]-1-methyl-1-carbapen-2-em-3-carboxylic acid monohydrochloride]: the MIC in data set [3] amounted to 3.13 µg/mL; in data set [4] (setting [12]) it was 0.78 µg/mL. For the same compound, the DHP-I susceptibility in data set [1] is reported as 0.15.

For the compound `C[C@@H](O)[C@H]1C(=O)N2C(C(=O)[O-])=C(S[C@@H]3CN[C@H](CSc4ccccc4)C3)[C@H](C)[C@H]12.[Na+]`, the MIC worked out at 1.56 µg/mL in data set [3] and 0.39 µg/mL in data set [4] (BB5939, 16 h). Further, the DHP-I susceptibility in data set [1] worked out at 0.15.

Turning to `C[C@@H](O)[C@H]1C(=O)N2C(C(=O)O)=C(S[C@@H]3CN[C@H](CNc4ccc(CN)cc4)C3)[C@H](C)[C@H]12.Cl` [Example 121, (1R,5S,6S)-2-[(3S,5S)-5-[4-(Aminomethyl)anilinomethyl]-pyrrolidin-3-ylthio]-6-[(R)-1-hydroxyethyl]-1-methyl-1-carbapen-2-em-3-carboxylic acid monohydrochloride], the MIC in data set [3] was 1.56 µg/mL; in [4] (setting [12]), 0.39 µg/mL. Further, the DHP-I susceptibility in data set [1] worked out at 0.15.

For the compound `C[C@@H](O)[C@H]1C(=O)N2C(C(=O)O)=C(SCCN)C[C@H]12` [thienamycin], the antibacterial activities entry in data set [5] is “excellent antibacterial spectrum and strong antibacterial activities”. The chemical stability entry in data set [6] (background statement) is “chemically unstable”. Besides, in [7], the “recovery rate in the urine” value is reported as “low”. In [8], the “decomposition by renal dehydropeptidase I” value was “likely to be decomposed”. Also, the “decomposition by DHP-I in the human kidney” value in data set [9] was “likely to be decomposed by DHP-I in the human kidney”.

Regarding `C[C@@H](O)[C@H]1C(=O)N2C(C(=O)O)=C(S[C@@H]3CN[C@H](Cc4ccc(CN)cc4)C3)[C@H](C)[C@H]12` [Example 131], the MIC in data set [3] was 3.13 µg/mL (≈ 7.25 µM); in data set [4] (setting [12]), 0.78 µg/mL (≈ 1.81 µM). In data set [1], the DHP-I susceptibility was below 0.05.

Take `C[C@@H](O)[C@H]1C(=O)N2C(C(=O)O)=C(S[C@@H]3CN[C@H](C(O)c4ccc(-c5ccc(CN)cc5)cc4)C3)[C@H](C)[C@H]12` (single isomer, unassigned; diastereomer i) [Example 140]: the MIC came out at 1.56 µg/mL (≈ 2.98 µM) in [3] and 0.78 µg/mL (≈ 1.49 µM) in [4] (setting [12]). For the same compound, the DHP-I susceptibility in data set [1] is listed as below 0.05.

`C=CCN1C[C@@H](SC2=C(C(=O)O)N3C(=O)[C@H]([C@@H](C)O)[C@H]3[C@H]2C)C[C@H]1Cc1cccc2ccccc12` [Example 137, (1R,5S,6S)-2-[(3S,5R)-N-Allyl-5-(1-naphthylmethyl)pyrrolidin-3-ylthio]-6-[(R)-1-hydroxyethyl]-1-methyl-1-carbapen-2-em-3-carboxylic acid]: in data set [1], the DHP-I susceptibility was below 0.05.

With `C[C@@H](O)[C@H]1C(=O)N2C(C(=O)O)=C(SCCN=CN)C[C@H]12` [Imipenem, (5R,6S)-3-[2-(formimidoylamino)ethylthie]-6-[(R)-1-hydroxyethyl]-7-oxo-1-azabicyclo[3.2.0]hept-2-en-2-carboxylic acid monohydrate], the antibacterial activities entry in data set [5] was “antibacterial activities of an equal or higher level than thienamycin”. The “stability in the solid form or in an aqueous solution” value in data set [6] (vs thienamycin) is “remarkably improved over thienamycin”. Also, the β-lactamase resistance entry in data set [10] was “β-lactamase resistance”. Moreover, the “toxicity against the kidney” value in data set [2] is given as “presents toxicity against the kidney”. Moreover, the MIC was above 25 µg/mL in data set [3] and 6.25 µg/mL in data set [4] (BB5939, 16 h). Also, in [1], the DHP-I susceptibility is reported as 1.0. Moreover, in [9], the “decomposition by DHP-I in the human kidney” value is “likely to be decomposed by DHP-I in the human kidney”. Moreover, the “treating effects against resistant bacteria” value in data set [11] is listed as “does not show adequate treating effects against these resistant bacteria”.
